Reference: ChEMBL document CHEMBL5696442, “Discovery of type II inhibitors of TGFβ-activated kinase 1 (TAK1) and mitogen-activated protein kinase kinase kinase kinase 2 (MAP4K2)” (J Med Chem, 2015)
Active and inactive are the calls of the source. The rule behind the calls is not given here.

What was measured:
[1] = molecular target: T1, Mitogen-activated protein kinase kinase kinase 6 (Homo sapiens) (UniProt O95382); experiment: Inhibition of MAP3K6 Lys1 labeling site harbouring IAIKEIPER in human A-375 cells at 5 uM by KiNativ Profiling analysis relative to control; type: cell-based
T1 sequence (whole entry): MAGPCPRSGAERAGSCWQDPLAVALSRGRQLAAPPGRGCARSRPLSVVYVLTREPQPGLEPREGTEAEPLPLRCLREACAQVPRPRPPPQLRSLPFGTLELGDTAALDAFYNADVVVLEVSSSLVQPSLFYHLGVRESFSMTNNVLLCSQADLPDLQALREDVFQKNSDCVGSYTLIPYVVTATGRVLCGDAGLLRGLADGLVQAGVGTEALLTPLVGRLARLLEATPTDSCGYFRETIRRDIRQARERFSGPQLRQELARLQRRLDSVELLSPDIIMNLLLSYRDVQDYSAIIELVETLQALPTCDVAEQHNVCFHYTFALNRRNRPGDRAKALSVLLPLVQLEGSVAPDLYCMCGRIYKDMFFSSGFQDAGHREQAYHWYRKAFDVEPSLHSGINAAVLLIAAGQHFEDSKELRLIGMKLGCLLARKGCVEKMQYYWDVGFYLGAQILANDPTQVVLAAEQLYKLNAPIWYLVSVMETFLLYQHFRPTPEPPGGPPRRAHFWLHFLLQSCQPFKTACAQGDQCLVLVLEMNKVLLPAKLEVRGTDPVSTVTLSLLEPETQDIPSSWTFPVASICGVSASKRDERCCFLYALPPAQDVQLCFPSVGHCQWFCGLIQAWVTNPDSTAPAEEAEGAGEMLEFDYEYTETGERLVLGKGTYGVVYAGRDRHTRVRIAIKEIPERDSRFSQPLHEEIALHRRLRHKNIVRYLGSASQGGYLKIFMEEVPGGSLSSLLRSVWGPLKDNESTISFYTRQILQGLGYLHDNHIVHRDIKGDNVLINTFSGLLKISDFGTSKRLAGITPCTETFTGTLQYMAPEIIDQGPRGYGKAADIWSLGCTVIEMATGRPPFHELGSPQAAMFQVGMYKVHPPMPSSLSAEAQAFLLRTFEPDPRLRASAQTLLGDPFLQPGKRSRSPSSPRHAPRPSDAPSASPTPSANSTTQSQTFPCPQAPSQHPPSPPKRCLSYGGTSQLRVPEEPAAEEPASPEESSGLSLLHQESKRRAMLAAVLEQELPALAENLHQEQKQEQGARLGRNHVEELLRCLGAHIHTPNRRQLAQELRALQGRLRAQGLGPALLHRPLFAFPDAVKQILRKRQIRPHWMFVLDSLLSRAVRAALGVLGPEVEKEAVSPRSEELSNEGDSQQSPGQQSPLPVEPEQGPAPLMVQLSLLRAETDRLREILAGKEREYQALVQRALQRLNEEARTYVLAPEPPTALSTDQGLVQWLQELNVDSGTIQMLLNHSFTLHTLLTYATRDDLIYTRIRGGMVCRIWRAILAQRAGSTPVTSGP

[2] = molecular target: Atypical kinase COQ8A, mitochondrial (Homo sapiens) (UniProt Q8NI60); experiment: Inhibition of ADCK3 (unknown origin) at 10 uM by Ambit Kinomescan binding assay
[3] = molecular target: T2, Serine/threonine-protein kinase Nek1 (Homo sapiens) (UniProt Q96PY6); experiment: Inhibition of NEK1 (unknown origin) at 10 uM by Ambit Kinomescan binding assay
T2 sequence (whole entry): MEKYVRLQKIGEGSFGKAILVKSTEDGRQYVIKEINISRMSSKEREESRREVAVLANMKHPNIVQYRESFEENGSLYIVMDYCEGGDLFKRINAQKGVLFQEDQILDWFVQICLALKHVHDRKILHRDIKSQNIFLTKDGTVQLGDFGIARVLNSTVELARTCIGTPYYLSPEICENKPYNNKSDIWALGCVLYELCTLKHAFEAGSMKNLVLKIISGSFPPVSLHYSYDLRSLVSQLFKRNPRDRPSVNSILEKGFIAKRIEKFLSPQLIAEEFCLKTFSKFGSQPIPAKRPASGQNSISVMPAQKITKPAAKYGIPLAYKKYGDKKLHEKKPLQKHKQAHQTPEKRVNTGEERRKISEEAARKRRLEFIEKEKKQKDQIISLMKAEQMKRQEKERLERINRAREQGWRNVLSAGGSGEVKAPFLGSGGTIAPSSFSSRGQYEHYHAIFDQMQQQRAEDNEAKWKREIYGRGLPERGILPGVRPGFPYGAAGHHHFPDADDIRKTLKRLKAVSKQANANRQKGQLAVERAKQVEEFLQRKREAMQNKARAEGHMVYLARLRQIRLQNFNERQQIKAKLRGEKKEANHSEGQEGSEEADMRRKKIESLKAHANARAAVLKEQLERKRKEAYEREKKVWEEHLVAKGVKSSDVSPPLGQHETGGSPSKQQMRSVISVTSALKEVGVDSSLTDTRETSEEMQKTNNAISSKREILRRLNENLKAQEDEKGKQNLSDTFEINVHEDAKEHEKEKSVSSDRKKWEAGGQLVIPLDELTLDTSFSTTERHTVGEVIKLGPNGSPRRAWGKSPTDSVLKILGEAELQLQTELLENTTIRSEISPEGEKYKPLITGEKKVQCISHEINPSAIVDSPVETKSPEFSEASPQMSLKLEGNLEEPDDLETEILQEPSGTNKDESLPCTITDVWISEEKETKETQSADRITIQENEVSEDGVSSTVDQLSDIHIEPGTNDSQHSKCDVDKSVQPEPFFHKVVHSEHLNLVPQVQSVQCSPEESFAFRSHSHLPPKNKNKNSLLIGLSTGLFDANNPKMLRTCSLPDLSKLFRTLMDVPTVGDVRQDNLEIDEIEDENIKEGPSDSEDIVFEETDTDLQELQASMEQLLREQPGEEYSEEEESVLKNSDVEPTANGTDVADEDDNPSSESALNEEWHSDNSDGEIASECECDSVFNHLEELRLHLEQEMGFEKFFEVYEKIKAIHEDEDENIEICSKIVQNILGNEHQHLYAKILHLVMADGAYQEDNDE

[4] = molecular target: Wee1-like protein kinase 2 (Homo sapiens) (UniProt P0C1S8); experiment: Inhibition of WEE2 (unknown origin) at 10 uM by Ambit Kinomescan binding assay
[5] = molecular target: LIM domain kinase 1 (Homo sapiens) (UniProt P53667); experiment: Inhibition of LIMK1 (unknown origin) at 1 uM by Ambit Kinomescan binding assay relative to control; values are per cent of control
LIM domain kinase 1 (Homo sapiens), sequence (P53667 whole entry, looked up, the tested form may be a part): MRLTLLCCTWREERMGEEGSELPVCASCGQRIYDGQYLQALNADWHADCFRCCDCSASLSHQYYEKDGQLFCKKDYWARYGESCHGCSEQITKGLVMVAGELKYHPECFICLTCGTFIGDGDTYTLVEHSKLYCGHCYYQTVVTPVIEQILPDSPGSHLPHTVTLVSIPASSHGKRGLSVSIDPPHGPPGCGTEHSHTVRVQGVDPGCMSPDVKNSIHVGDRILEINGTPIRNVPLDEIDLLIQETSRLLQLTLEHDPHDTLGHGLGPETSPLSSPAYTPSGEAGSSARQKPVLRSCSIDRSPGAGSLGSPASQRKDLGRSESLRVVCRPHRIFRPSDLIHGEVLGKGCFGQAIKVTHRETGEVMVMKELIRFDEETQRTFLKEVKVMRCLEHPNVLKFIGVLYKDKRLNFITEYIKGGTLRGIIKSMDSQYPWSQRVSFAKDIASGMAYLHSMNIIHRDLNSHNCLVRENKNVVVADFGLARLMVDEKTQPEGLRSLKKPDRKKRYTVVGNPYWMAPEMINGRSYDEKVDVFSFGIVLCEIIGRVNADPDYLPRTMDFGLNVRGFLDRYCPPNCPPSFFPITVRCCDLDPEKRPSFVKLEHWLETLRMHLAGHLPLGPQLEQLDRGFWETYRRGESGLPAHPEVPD

Atypical kinase COQ8A, mitochondrial (Homo sapiens), sequence (Q8NI60 163-647 limits assumed): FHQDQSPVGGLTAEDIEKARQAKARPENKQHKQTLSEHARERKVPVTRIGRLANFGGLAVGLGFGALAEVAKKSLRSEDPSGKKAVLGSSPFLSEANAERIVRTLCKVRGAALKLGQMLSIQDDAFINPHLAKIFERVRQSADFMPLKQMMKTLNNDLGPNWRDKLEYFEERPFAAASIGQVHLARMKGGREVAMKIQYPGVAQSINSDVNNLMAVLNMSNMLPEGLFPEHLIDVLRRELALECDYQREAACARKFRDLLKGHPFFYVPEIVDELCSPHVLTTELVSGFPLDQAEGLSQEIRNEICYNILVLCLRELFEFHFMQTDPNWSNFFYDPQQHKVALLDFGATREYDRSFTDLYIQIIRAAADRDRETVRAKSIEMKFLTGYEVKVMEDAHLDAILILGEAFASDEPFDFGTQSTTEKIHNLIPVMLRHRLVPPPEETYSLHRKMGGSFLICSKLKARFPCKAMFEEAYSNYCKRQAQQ
Wee1-like protein kinase 2 (Homo sapiens), sequence (P0C1S8 whole entry, looked up, the tested form may be a part): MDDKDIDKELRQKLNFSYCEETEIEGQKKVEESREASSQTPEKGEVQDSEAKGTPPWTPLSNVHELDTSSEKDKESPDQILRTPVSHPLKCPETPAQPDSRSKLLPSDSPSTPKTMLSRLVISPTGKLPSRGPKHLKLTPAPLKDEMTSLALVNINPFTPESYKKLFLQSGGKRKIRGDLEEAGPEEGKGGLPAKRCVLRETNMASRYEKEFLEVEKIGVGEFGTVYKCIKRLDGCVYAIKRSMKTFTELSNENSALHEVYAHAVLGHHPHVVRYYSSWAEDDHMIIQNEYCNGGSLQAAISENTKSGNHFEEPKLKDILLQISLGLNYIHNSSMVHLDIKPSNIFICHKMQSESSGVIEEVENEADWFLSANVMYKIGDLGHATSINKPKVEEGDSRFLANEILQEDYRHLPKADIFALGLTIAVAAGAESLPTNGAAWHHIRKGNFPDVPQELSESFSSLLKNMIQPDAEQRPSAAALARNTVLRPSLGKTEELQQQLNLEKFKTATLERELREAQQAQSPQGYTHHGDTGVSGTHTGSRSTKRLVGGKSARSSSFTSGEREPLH

| Structure (SMILES) | inhibition [1] [%] | inhibition [2] | inhibition [3] | inhibition [4] | residual activity [5] [%] |
| --- | --- | --- | --- | --- | --- |
| CCN1CCN(Cc2ccc(NC(=O)c3ccc(C)c(Oc4ccnc5[nH]ccc45)c3)cc2C(F)(F)F)CC1 | -0.6 | inactive | inactive | inactive |  |
| CCN1CCN(Cc2ccc(NC(=O)c3ccc(C)c(/C=C/c4cnc5[nH]ccc5c4OC)c3)cc2C(F)(F)F)CC1 |  |  |  |  | 25 |
